Here are results for 13 compounds from PubChem BioAssay (NCI).

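Five compound concentrations were applied to cells in 96-well plates for 48 hours; endpoints were derived by simple linear interpolation of the resulting dose-response curve. GI50 marks 50% less growth. At the TGI there is no net growth.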

Among the test systems are SNB-75 CNS; SF-539 CNS; ACHN renal; SN12C renal; NCI-H226 lung; IGROV1 ovarian; M14 melanoma; UACC-62 melanoma; OVCAR-3 ovarian; HOP-62 NSCLC.
What all share (test): NCI tumour cell line growth inhibition, 48 h

On to `CN1C(=O)c2c(ccc3c2OCO3)C2C(O)Cc3cc4c(cc3C21)OCO4` (stereo not drawn), for which the TGI with SNB-75 CNS was 5.13 µM; in the experiment with SF-539 CNS, 16.8 µM; in the experiment with ACHN renal, greater than 100 µM; in the experiment on SN12C renal it was greater than 100 µM; in the experiment on NCI-H226 lung, 5.93 µM; in the experiment with IGROV1 ovarian, 8.85 µM. The TGI with M14 melanoma, in the experiment with UACC-62 melanoma and in the experiment on OVCAR-3 ovarian was greater than 100 µM throughout.

Turning to `CCC(C)CN1C(=O)NC(C)(Cc2ccccc2)C1=O` (stereo not drawn), the TGI in the experiment on SNB-75 CNS, in the experiment on HOP-62 NSCLC, in the experiment with SF-539 CNS, with ACHN renal, in the experiment with SN12C renal and in the experiment with NCI-H226 lung was greater than 100 µM throughout. Moreover, the TGI with M14 melanoma was greater than 100 µM.

With `Cc1nc2ccc(CN(C)c3ccc(C(=O)N[C@@H](CCC(=O)O)C(=O)O)s3)cc2c(=O)[nH]1`, the TGI in the experiment on SNB-75 CNS, in the experiment on HOP-62 NSCLC, with ACHN renal, in the experiment with SN12C renal, in the experiment with NCI-H226 lung and with IGROV1 ovarian was greater than 100 µM in each case. Further, the TGI in the experiment with M14 melanoma, with UACC-62 melanoma and in the experiment on OVCAR-3 ovarian was greater than 100 µM each time.

Regarding `C=CCC1OC(C)(C)Oc2ccc(OCOCCOC)cc21` (stereo not drawn), the TGI with SNB-75 CNS, in the experiment with HOP-62 NSCLC, with SF-539 CNS, in the experiment with ACHN renal, in the experiment on SN12C renal and in the experiment with IGROV1 ovarian was greater than 100 µM each time. In addition, the TGI in the experiment with M14 melanoma, in the experiment with UACC-62 melanoma and in the experiment on OVCAR-3 ovarian was greater than 100 µM in each case.

For `N#Cc1cccc(N2C(=O)c3c(c(-c4ccccc4)c(-c4ccc(Sc5ccc(-c6c(-c7ccccc7)c7c(c(-c8ccccc8)c6-c6ccccc6)C(=O)N(c6cccc(C#N)c6)C7=O)cc5)cc4)c(-c4ccccc4)c3-c3ccccc3)C2=O)c1`, the TGI in the experiment with HOP-62 NSCLC, with SF-539 CNS, with ACHN renal, in the experiment with SN12C renal, in the experiment on IGROV1 ovarian and in the experiment on M14 melanoma was greater than 100 µM each time. Further, the TGI with UACC-62 melanoma and in the experiment with OVCAR-3 ovarian was greater than 100 µM throughout.

As to `N=C(c1ccccc1)N(c1ccccc1)c1ccccc1`, the TGI in the experiment on SNB-75 CNS, in the experiment on HOP-62 NSCLC, in the experiment with SF-539 CNS, in the experiment on SN12C renal, in the experiment with NCI-H226 lung and with M14 melanoma was greater than 100 µM each time.

In the case of `CC1=C(C(=O)NCc2ccccc2)C(c2ccc(C3C(C(=O)NCc4ccccc4)=C(C)NC(C)=C3C(=O)NCc3ccccc3)cc2)C(C(=O)NCc2ccccc2)=C(C)N1`, the TGI was found to be 41.1 µM with HOP-62 NSCLC; 5.52 µM in the experiment with SF-539 CNS; 29.6 µM in the experiment on ACHN renal; 20.5 µM in the experiment on SN12C renal; 33.7 µM with NCI-H226 lung; 37.8 µM in the experiment on IGROV1 ovarian. The values for the TGI in the experiment on M14 melanoma, with UACC-62 melanoma and in the experiment with OVCAR-3 ovarian were 24.1 µM, 22.2 µM and 22.9 µM, respectively.

As for `CC(C)=CCN=C(N)N`, the TGI in the experiment on SF-539 CNS, in the experiment on ACHN renal, in the experiment with SN12C renal, in the experiment with NCI-H226 lung, in the experiment with IGROV1 ovarian and in the experiment on UACC-62 melanoma was greater than 100 µM in each case.

`O=C(Nc1ccc(Cl)cc1Cl)c1ccc(NC2=C(Cl)C(=O)N(Cc3ccccc3)C2=O)cc1`: the GI50 in the experiment with HOP-62 NSCLC was 20.2 µM; in the experiment on SF-539 CNS, 18.9 µM; in the experiment with ACHN renal, 18.9 µM; in the experiment on SN12C renal, 20.3 µM; in the experiment with NCI-H226 lung, 20.5 µM; with IGROV1 ovarian, 12.2 µM. The results for the GI50 with M14 melanoma, in the experiment with UACC-62 melanoma and with OVCAR-3 ovarian were 64.6 µM, 18.6 µM and 16.3 µM, respectively. Also, the TGI with HOP-62 NSCLC is 40.5 µM; with SF-539 CNS it was 33.1 µM; with ACHN renal, 33.7 µM; in the experiment with SN12C renal it was 42.8 µM; with NCI-H226 lung, 45.8 µM; with IGROV1 ovarian, greater than 100 µM. The values for the TGI in the experiment with M14 melanoma, in the experiment with UACC-62 melanoma and in the experiment with OVCAR-3 ovarian were greater than 100 µM, 35.3 µM and 33.5 µM, respectively.

On to `COc1cc2c(cc1O)C=NCC2`, for which the TGI in the experiment on SNB-75 CNS, with SF-539 CNS, in the experiment on ACHN renal, in the experiment with SN12C renal, with NCI-H226 lung and in the experiment with IGROV1 ovarian was greater than 100 µM throughout. For the same compound, the TGI with M14 melanoma, in the experiment with UACC-62 melanoma and with OVCAR-3 ovarian was greater than 100 µM in each case.

As to `COc1cccc([C@H]2CC(=O)c3cc4c(cc3N2)OCO4)c1`, the TGI is greater than 100 µM with SNB-75 CNS; greater than 100 µM in the experiment on HOP-62 NSCLC; greater than 100 µM in the experiment on ACHN renal; greater than 100 µM in the experiment with SN12C renal; greater than 100 µM with NCI-H226 lung; 0.0965 µM in the experiment with UACC-62 melanoma. In the experiment with OVCAR-3 ovarian, this compound came in with a TGI greater than 100 µM. The GI50 with HOP-62 NSCLC is 2.56 µM; in the experiment with SF-539 CNS, 0.084 µM; in the experiment with ACHN renal, 0.0763 µM; with SN12C renal it was 0.161 µM; in the experiment with NCI-H226 lung, 0.226 µM; in the experiment on M14 melanoma, 0.0864 µM. The GI50 in the experiment on UACC-62 melanoma was 0.0226 µM; in the experiment on OVCAR-3 ovarian, 0.0415 µM.

As for `CC1CC2C3CC(F)C4=CC(=O)C=CC4(C)C3(F)C(O)CC2(C)C1(O)C(=O)COC(=O)C(C)(C)C` (stereo not drawn), the TGI in the experiment on SNB-75 CNS, in the experiment on HOP-62 NSCLC, with SF-539 CNS, with ACHN renal, with NCI-H226 lung and in the experiment on IGROV1 ovarian was greater than 100 µM each time. In addition, the TGI in the experiment with M14 melanoma, with UACC-62 melanoma and in the experiment on OVCAR-3 ovarian was greater than 100 µM throughout.

In the case of `NS(=O)(=O)c1ccc(NC(=O)c2ccc(NC3=C(Cl)C(=O)N(Cc4ccccc4)C3=O)cc2)cc1`, the GI50 was 10.4 µM in the experiment on HOP-62 NSCLC; 4.59 µM in the experiment with SF-539 CNS; 13.7 µM with ACHN renal; 2.12 µM with NCI-H226 lung; 3 µM in the experiment with IGROV1 ovarian; 12 µM in the experiment on M14 melanoma. In addition, the GI50 in the experiment with OVCAR-3 ovarian is 1.89 µM. The TGI is 22.1 µM with HOP-62 NSCLC; 22 µM with SF-539 CNS; 26.6 µM in the experiment on ACHN renal; 5.91 µM in the experiment with NCI-H226 lung; greater than 100 µM in the experiment on IGROV1 ovarian; 34.6 µM in the experiment on M14 melanoma. In the experiment with OVCAR-3 ovarian, this compound came in with a TGI of 7.88 µM.
